The numbers were not newly measured in PMC10458458, “Characterization of Anticancer Effects of the Analogs of DJ4, a Novel Selective Inhibitor of ROCK and MRCK Kinases” (Pharmaceuticals, 2023), which cites them from elsewhere.

The test system of one data set is HeLa cells. Further details: method as in PMID 10779382. Conditions: >100 µM; cited from earlier work.
Another data set concerns astrocytes. The arrangement: method as in PMID 22929997. The note with it: 10 µM; cited from earlier work.

On to `C[C@@H](N)[C@H]1CC[C@H](C(=O)Nc2ccncc2)CC1` [Compound Y27632, Y27632], for which the effect on cytokinesis result in the data set on HeLa cells is on record as “impaired cytokinesis”. Moreover, in the data set with astrocytes, the “effect on proliferation and cell cycle” value is “promoted proliferation and progression of the cell cycle”.
